Laboratory results reported in patent publication US12599676B2, “Cytotoxic imidazo[1,2-A]pyridine compounds and their use in therapy” (MyricX Pharma Limited, priority 2022, dated 2026).

Legend:
[1] = test system: DU4475 (human breast carcinoma); assay: Cell cytotoxicity CellTiter-Glo, DU4475; format: cell-based; conditions: DU-4475
Experimental: (§1) Cells were seeded in 96-well microplates and treated with compounds or cisplatin (as a positive control) at 9 increasing concentrations in technical triplicate. […] On day 1, 90 μL of various cell suspensions with the number of cells ranging from 5000-8000 cells/well were seeded into wells of a 96-well plate (Corning). The number of cells to be seeded was previously determined. • 2. All 96-wells plates with cells were placed in an incubator overnight at 37° C. with 5% CO2. • 3. On day 2, cells were observed under a microscope ensuring the cells treated with vehicle control were in good condition. • 4. A dilution series of the test compounds and cisplatin were prepared at 10× the final concentrations required. 10 μL/well of 10× compound solution was added to the corresponding plates. The final volume was 100 μL/well for all the plates. Final DMSO concentration was 0.1%. • 5. On day 5 (after 72 hours of incubation), 50 μL of CTG reagent was added to each well. • 6. Contents were mixed for 5 minutes on an orbital shaker to facilitate cell lysis. • 7. The plate was allowed to incubate at room temperature for 10 minutes to stabilize luminescent signals. […]

[2] = Caco-2 cell permeability assay; format: in vitro ADME; conditions: human, Caco-2, pH 7.4, basal to apical Papp, pH 7.4, 2.5 h
Experimental: (§2) Certain Example compounds and Comparative Example 1 were tested for their apical to basal (AB) and basal to apical (BA) permeability in Caco-2 cells.
(§3) Cell Culture: Caco-2 cells were grown for 10 days in 96-well plates in HBSS buffer containing 10 mM HEPES. Both the apical and basal pH was buffered at pH 7.4. The apical/basal volumes were 75 μl and 250 μl respectively. The incubation time was 2.5 h at 37° C. (without shaking) under 5% CO2 & 95% relative humidity.
(§4) Cell Seeding: Cells were seeded at a density of 18750 cells/well (membrane area=0.0804 cm^2) in a 96 well plate.
(§5) AB Assay: 75 μl of cell suspension was added at a density 2.5×10^5 cells/ml to the apical wells. 40 ml media was added to the feeder tray. The plates were placed in the incubator (37° C., 5% CO2 and controlled humidity). The Caco-2 cells were grown for 10 days with a media change on every alternate day.
(§6) BA Assay: 25 μl of cell suspension was added at a density of 7.5×10^5 cells/ml to the bottom side (keeping the plate upside down) of apical wells. The plate (upside down position) was placed in the incubator (37° C., 5% CO2 and 95% Relative humidity) for 2 h. The plate was turned right side up. 75 μl media was added to the apical wells and 40 ml media to the feeder tray.
(§7) Permeablity Assay: The apical and basal wells were washed with buffer (pH 7.4) and 250 μl buffer was added to the wells of the basal plate. 75 μl of compound solution (2 μM, dissolved in water with 1% DMSO) was transferred to the apical wells (n=2). The apical plate was placed onto the basal plate. The lid was placed on to prevent evaporation. The assembly was incubated at 37° C. for 2.5 h (without shaking) under 5% CO2 and 95% relative humidity. After incubation the apical plate was separated from the basal plate. Aliquots were taken out from the acceptor and donor wells, diluted and quantified using LC-MS/MS along with initial donor samples.
(§8) Membrane Integrity Test: Solution in the apical wells was discarded by inverting the plate and soaking onto tissue paper. 250 μl buffer (pH 7.4) was added to each well of basal plate and 75 μl of Lucifer Yellow (LY; 0.1 mg/ml) in buffer (pH 7.4) to the wells of apical plate. The apical plate was placed onto the basal plate and the lid used to prevent evaporation. The assembly was incubated at 37° C. for 1 h (without shaking) under 5% CO2 and 95% relative humidity. The apical plate was separated from the basal plate. Fluorescence (Ex: 432 nm, Em: 530 nm) of aliquots (100 ul) was measured from basal wells. Fluorescence of 100 μl buffer (pH 7.4) and 100 μl LY(0.1 mg/ml) was also measured. Wells having more than 1% fluorescence intensity with respect to 0.1 mg/ml LY were considered non-integrated membrane. Such wells, if any, were not considered for permeability calculation.
(§9) Calculation: Drug was detected and quantified by LC-MS/MS. Data generated took the form of an apparent permeability (Papp) value. Papp=[Va/(AreaxTime)]×(LC-MS Area of Acceptor sample×Sample dilution factor/LC-MS Area of Initial Donor). Va=Volume of Acceptor Well (in ml)=0.25, Vd=Volume of Donor Well (in ml)=0.075, Area=Surface area of the membrane (cm2)=0.0804, Time=Time of incubation (sec)=9000 Results: The results of the assay are shown in Table 3 below.

[3] = test system: Caco-2 cells; assay: Caco-2 cell permeability assay; format: in vitro ADME; conditions: apical to basal Papp, 2 μM, pH 7.4, 2.5 h
Experimental: as §2, §3, §4, §5, §6, §7, §8, §9

[4] = test system: MX-1 (human breast carcinoma); assay: Cell cytotoxicity CellTiter-Glo, MX-1; format: cell-based; conditions: MX1
Experimental: as §1

[5] = test system: RKO (human colon carcinoma); assay: Cell cytotoxicity CellTiter-Glo, RKO; format: cell-based
Experimental: as §1

[6] = test system: SU-DHL-10 cell line (human B cell lymphoma); assay: Cell cytotoxicity in SU-DHL-10 cell line (CellTiter-Glo); format: cell-based; conditions: 72 h treatment, CTG
Experimental: Certain Example compounds of the invention and Comparator Compound 1 were tested in the SU-DHL-10 cell line (human B cell lymphoma). Compounds which show efficacy in this assay are expected to be useful as agents for treating or preventing hyperproliferative disorders such as cancer.
Cells were seeded in 96-well microplates and treated with compounds or cisplatin (as a positive control) at 9 increasing concentrations in technical triplicate. […] On day 1, 90 μL of various cell suspensions with the number of cells ranging from 5000-8000 cells/well were seeded into wells of a 96-well plate (Corning). The number of cells to be seeded was previously determined. • 2. All 96-wells plates with cells were placed in an incubator overnight at 37° C. with 5% CO2. • 3. On day 2, cells were observed under a microscope ensuring the cells treated with vehicle control were in good condition. • 4. A dilution series of the test compounds and cisplatin were prepared at 10× the final concentrations required. 10 μL/well of 10× compound solution was added to the corresponding plates. The final volume was 100 μL/well for all the plates. Final DMSO concentration was 0.1%. • 5. On day 5 (after 72 hours of incubation), 50 μL of CTG reagent was added to each well. • 6. Contents were mixed for 5 minutes on an orbital shaker to facilitate cell lysis. • 7. The plate was allowed to incubate at room temperature for 10 minutes to stabilize luminescent signals.
Luminescence was recorded using an EnVision Multi Label Reader. Data analysis was performed using GraphPad Prism 8.0.
To calculate IC50, a concentration-response curve was generated using a nonlinear regression model with a sigmoidal concentration response. The formula for calculating the % of viable cells was shown below, and the IC50s are automatically generated by GraphPad Prism 8.0.
(LumTest article=luminescence in test article treated well; LumNone treated=luminescence in vehicle treated well; LumMedium control=luminescence in a well containing only medium and no cells; LumNone treated-LumMedium control was set as 100%)

[7] = test system: mouse hepatocytes; assay: Hepatocyte metabolic stability, mouse; format: in vitro ADME
Experimental: (§10) Biological Example 6: Rat hepatocyte half life Certain Example compounds and Comparator Compound 1 were tested for metabolic stability in a metabolic assay using mouse- and rat-derived hepatocytes. Compounds having good metabolic stability in the assay are expected to be especially useful as agents for preventing and/or treating cancer, by having a long half-life in human patients.
(§11) Frozen pooled rat and mouse hepatocytes obtained from LifeTechnologies were thawed and purified according to the manufacturer's instructions. The test compound (4 mM) in DMSO was diluted with acetonitrile to provide a 100 μM sub-stock then further diluted with pH 7.4 Krebs-Henseleit buffer (supplemented with CaCl2, NaHCO3, HEPES, fructose and glycine) to provide a 2 μM working solution. 25 μL of working solution was incubated at 37° C., treated with 25 μL of rat or mouse hepatocyte suspension (containing 1×10^6 cells/mL) and incubated at 37° C. with 5% CO2 level at 95% relative humidity. Wells were incubated for an appropriate time (0, 15, 30, 45, 60 and 75 min) then quenched with 250 μL of acetonitrile containing reference standards diltiazem, 7-ethoxycoumarin and propranolol). The plates were shaken, sonicated for 5 min then cooled to 4° C. until all sampling was complete. All plates were centrifuged at 4000 rpm for 20 min to pellet the debris. 110 μL supernatant was diluted 110 μL water and quantitated using LC-MS/MS.
(§12) A linear regression curve was fitted to a plot of natural logarithm (In) of AUC against time. The T-half (min)=0.693/slope

[8] = test system: NCI-H1703 (human lung squamous cell carcinoma); assay: Cell cytotoxicity CellTiter-Glo, NCI-H1703; format: cell-based
Experimental: as §1

[9] = test system: HT1080 (human fibrosarcoma); assay: Cell cytotoxicity CellTiter-Glo, HT1080; format: cell-based; conditions: HT-1080
Experimental: as §1

[10] = test system: CA46 (human B cell lymphoma); assay: Cell cytotoxicity CellTiter-Glo, CA46; format: cell-based
Experimental: as §1

[11] = test system: rat hepatocytes; assay: Hepatocyte metabolic stability, rat; format: in vitro ADME
Experimental: as §10, §11, §12

[12] = test system: DOHH-2 tumor cells; assay: Subcutaneous xenograft DOHH-2 lymphoma model; format: in vivo, CB17/SCID mice; conditions: intraperitoneal dosing (Example 5: 7 or 20 mg/kg; Example 12: 0.7 or 2 mg/kg), QD cycles
Experimental: The in vivo efficacy of certain Example compounds was assessed in a subcutaneous xenograft DOHH-2 Lymphoma Model using 10 female 6-8 week old CB17/SCID Mice. Each mouse was inoculated subcutaneously at the right front region with DOHH-2 tumor cells (5×10^6) in 0.1 ml of PBS mixed with matrigel (1:1 PBS:matrigel) for tumor development. The test compound administration started once the mean tumor size reached approximately 100-150 mm^3.
Compounds were administered either IP (vehicle 10 mM sodium phosphate+0.2% Tween-80 (pH7.4) or orally (vehicle 15 Na2HPO4 buffer (10 mM) (pH 4.5)+0.2% tween 80). Tumor volumes were measured in two dimensions using a caliper, and the volume expressed in mm^3 using the formula: V=(L×W×W)/2, where V is tumor volume, L is tumor length (the longest tumor dimension) and W is tumor width (the longest tumor dimension perpendicular to L).
Mice were dosed with Example 21 orally (12.5 or 25 mg/kg) once a day for 9 consecutive days (FIG. 3). Example 5 was dosed intraperitoneally (7 or 20 mg/kg) in a cycle consisting of administration QD for three days followed by a three day no-dosing period followed by QD dosing for a further three days (FIG. 4). Example 12 was dosed intraperitoneally (0.7 or 2 mg/kg) in a cycle consisting of administration QD for three days followed by a three day no-dosing period followed by QD dosing for a further three days (FIG. 5). In a separate study Example 12 was dosed at […] in a cycle consisting of administration QD for two days followed by either four or six day no-dosing period, and this cycle was repeated three times (FIG. 6).

Papp B→A at 2.5 h, 2 μM [2] | Caco-2 A-B [3] | mHeps t^1/2 [7] | rHeps t^1/2 [11] | SMILES | IC50 [1] | IC50 [4] | IC50 [5] | IC50 [6] | IC50 [8] | IC50 [9] | IC50 [10] | IC50 ([6]; Homo sapiens, SU-DHL10, 72 h) | tumour volume compared to vehicle [12]
5.14 ×10⁻⁶ cm/s | 0.215 ×10⁻⁶ cm/s | 26.73 min | 18 min | CNCc1cnc2ccc(-c3ccc(F)c(F)c3OCCc3c(C(O)C(C)(C)C)nn(C)c3C)cn12 (single isomer, unassigned) [Example 14, 1-(4-(2-(2,3-difluoro-6-(3-((methylamino)methyl)imidazo[1,2-a]pyridin-6-yl)phenoxy)ethyl)-1,5-dimethyl-1H-pyrazol-3-yl)-2,2-dimethylpropan-1-ol] | 20 nM | 1.4 nM | 2 nM | 0.4 nM | 4 nM | 1 nM | 2 nM |  | 
14.1 ×10⁻⁶ cm/s | 0.1 ×10⁻⁶ cm/s |  | 68 min | CNCc1cnc2ccc(-c3ccc(F)cc3OCCc3c(C(C)O)nn(C)c3C)cn12 (stereo not drawn) [Example 1, 1-{4-[2-(5-fluoro-2-{3-[(methylamino)methyl]imidazo[1,2-a]pyridin-6-yl}phenoxy)ethyl]-1,5-dimethyl-1H-pyrazol-3-yl}ethan-1-ol] |  |  |  |  |  |  |  | 15.3 nM | 
16 ×10⁻⁶ cm/s | 0.195 ×10⁻⁶ cm/s | 51.17 min |  | CNCc1cnc2ccc(-c3ccc(F)c(F)c3OCCc3c(C(C)O)nn(C)c3C)cn12 (stereo not drawn) [Example 5, 1-{4-[2-(2,3-difluoro-6-{3-[(methylamino)methyl]imidazo[1,2-a]pyridin-6-yl}phenoxy)ethyl]-1,5-dimethyl-1H-pyrazol-3-yl}ethan-1-ol] |  |  |  |  |  |  |  | 5.9 nM | significant reduction in tumour volume or reduced growth in tumour volume
22 ×10⁻⁶ cm/s | 3.04 ×10⁻⁶ cm/s |  | 15 min | Cc1c(CCOc2c(-c3ccc4ncc(CN(C)C)n4c3)ccc(F)c2F)c(C(C)O)nn1C (stereo not drawn) [Example 6, 1-(4-(2-(6-(3-((dimethylamino)methyl)imidazo[1,2-a]pyridin-6-yl)-2,3-difluorophenoxy)ethyl)-1,5-dimethyl-1H-pyrazol-3-yl)ethan-1-ol] |  |  |  |  |  |  |  | 5 nM | 
